The nature of data set [1]: AUC in ICR mouse at 20 mg/kg, po by LC-MS/MS analysis. Type of data set: ADME, organism-based. Set-up: dose 20 mg/kg, route po. The conditions noted are these: in vivo.
A short description of data set [2]: Elimination rate constant in ICR mouse at 20 mg/kg, po by LC-MS/MS analysis. Type of data set: ADME, organism-based. The settings on record: in vivo; for k el: ICR; for Kel: po, 20 mg/kg.
The nature of data set [3]: Toxicity in BALB/c mouse xenografted with human MIA PaCa-2 cells harboring KRAS G12C mutant assessed as mortality at 50 mg/kg, po once a day measured for 16 days. Type of data set: organism-based. The conditions noted are these: in vivo, 384 h, time 16 day. On the technique in general: A xenograft is tissue or cells of one species grown in another, often human tumour cells in immunodeficient mice.

Data set [4] in a line: Cmax in ICR mouse at 20 mg/kg, po by LC-MS/MS analysis. In kind it is ADME, organism-based. Also on record: dose 20 mg/kg, route po. The settings on record: in vivo.
Data set [5] in a line: Inhibition of SOS1/KRAS G13D mutant protein-protein interaction in human DLD-1 cells assessed as ERK1/2 phosphorylation measured after 1 hr by homogeneous time-resolved fluorescence (HTRF) method. Type of data set: cell-based. The conditions noted are these: DLD-1, 1 h. On the technique in general: TR-FRET usually uses a lanthanide donor and a delayed reading to cut background.

Data set [6] can be described thus: Toxicity in BALB/c mouse xenografted with human MIA PaCa-2 cells harboring KRAS G12C mutant assessed as change in body weight at 50 mg/kg, po once a day measured for 16 days. In kind it is organism-based. The settings on record: in vivo, 384 h, time 16 day.
For data set [7], the system named is MIA PaCa-2. Nature of the data set: In vivo antitumor activity against human MIA PaCa-2 cells harboring KRAS G12C mutant xenografted in BALB/c mouse assessed as reduction in tumor volume at 50 mg/kg, po once a day measured for 16 days relative to control. Type of data set: functional. Set-up: scale not given: the % may be the effect or the level left. The settings on record: time 16 day.

A short description of data set [8]: Half life in ICR mouse at 20 mg/kg, po by LC-MS/MS analysis. The conditions noted are these: in vivo; for half-life: ICR; for t1/2: po, 20 mg/kg. Type of data set: ADME, organism-based.
Data set [9] can be described thus: MRT in ICR mouse at 20 mg/kg, po by LC-MS/MS analysis. The conditions noted are these: in vivo. In kind it is ADME, organism-based.
Data set [10] in a line: Tmax in ICR mouse at 20 mg/kg, po by LC-MS/MS analysis. In kind it is ADME, organism-based. The settings on record: in vivo.
Data set [11] in a line: Elimination rate constant in ICR mouse at 10 mg/kg, po by LC-MS/MS analysis. In kind it is ADME, organism-based. The conditions noted are these: in vivo.
The nature of data set [12]: Tmax in ICR mouse at 10 mg/kg, po by LC-MS/MS analysis. In kind it is ADME, organism-based. The settings on record: in vivo.
A short description of data set [13]: MRT in ICR mouse at 10 mg/kg, po by LC-MS/MS analysis. In kind it is ADME, organism-based. The conditions noted are these: in vivo.
For data set [14], the target named is SOS1-KRAS (Homo sapiens, UniProt Q07889). Nature of the data set: Inhibition of human recombinant SOS1 (residue 564-1049)/KRAS G12C mutant protein-protein interaction at incubated for 25 degC for 60 mins by homogeneous time-resolved fluorescence (HTRF) method.
Data set [15] is described as follows: Half life in ICR mouse at 10 mg/kg, po by LC-MS/MS analysis. In kind it is ADME, organism-based. The conditions noted are these: in vivo.
The nature of data set [16]: Cmax in ICR mouse at 10 mg/kg, po by LC-MS/MS analysis. In kind it is ADME, organism-based. Also on record: dose 10 mg/kg, route po. The settings on record: in vivo.
Data set [17] is described as follows: AUC in ICR mouse at 10 mg/kg, po by LC-MS/MS analysis. Also on record: dose 10 mg/kg, route po. Type of data set: ADME, organism-based. The settings on record: in vivo.
Data set [18] has as its system MIA PaCa-2. Nature of the data set: Antiproliferative activity against human MIA PaCa-2 cells assessed as cell viability measured after 72 hrs by MTT assay. The settings on record: MIA PaCa-2, 72 h. Type of data set: functional, cell-based. (In general: Formazan colour is commonly taken as a measure of viable cells.)
Data set [19] can be described thus: Metabolic stability in mouse liver microsomes assessed as intrinsic clearance in presence of NADPH measured upto 60 mins by LC-MS/MS analysis. In kind it is ADME, Microsome. The settings on record: read-out: CLH.
Data set [20] relates to MIA PaCa-2. Nature of the data set: In vivo antitumor activity against human MIA PaCa-2 cells harboring KRAS G12C mutant xenografted in BALB/c mouse assessed as reduction in tumor volume at 50 mg/kg, po once a day measured for 16 days relative to BI-3406. In kind it is functional. Set-up: scale not given: the % may be the effect or the level left. The settings on record: time 16 day.

The nature of data set [21]: Metabolic stability in rat liver microsomes assessed as intrinsic clearance in presence of NADPH measured upto 60 mins by LC-MS/MS analysis. Type of data set: ADME, Microsome. The settings on record: read-out: CLH.
A short description of data set [22]: Metabolic stability in rat liver microsomes assessed as half life in presence of NADPH by LC-MS/MS analysis. Type of data set: ADME, Microsome.
The nature of data set [23]: Metabolic stability in mouse liver microsomes assessed as half life in presence of NADPH by LC-MS/MS analysis. In kind it is ADME, Microsome.
The test system of data set [24] is NCI-H358. Nature of the data set: Antiproliferative activity against human NCI-H358 cells harboring SOS1/KRAS G12C mutant measured after 24 hrs by AlamarBlue based 3-D proliferation assay. In kind it is functional, cell-based.
Data set [25] has as its system MIA PaCa-2. As to the kind of experiment: In vivo antitumor activity against human MIA PaCa-2 cells harboring KRAS G12C mutant xenografted in BALB/c mouse assessed as tumor growth inhibition at 50 mg/kg, po once a day measured for 16 days relative to control. In kind it is functional. The conditions noted are these: MIA PaCa-2, 384 h, time 16 day, read-out: TGI.

Active and inactive are the calls of the source. The calls are words filed in the database; no cut-off is given here.

By AUC is commonly meant concentration integrated over time. A word on the Cmax: it is the maximum level reached in the sampled fluid or tissue. In general, IC50 refers to the midpoint of a concentration-inhibition curve. The term half-life denotes how long it takes for the measured level to halve. A word on the MRT: it is the average time that molecules of a dose stay in the body. By Tmax is commonly meant the time from dosing to the highest level.

Sequence of SOS1-KRAS (Q07889 whole entry, looked up, stated change not applied): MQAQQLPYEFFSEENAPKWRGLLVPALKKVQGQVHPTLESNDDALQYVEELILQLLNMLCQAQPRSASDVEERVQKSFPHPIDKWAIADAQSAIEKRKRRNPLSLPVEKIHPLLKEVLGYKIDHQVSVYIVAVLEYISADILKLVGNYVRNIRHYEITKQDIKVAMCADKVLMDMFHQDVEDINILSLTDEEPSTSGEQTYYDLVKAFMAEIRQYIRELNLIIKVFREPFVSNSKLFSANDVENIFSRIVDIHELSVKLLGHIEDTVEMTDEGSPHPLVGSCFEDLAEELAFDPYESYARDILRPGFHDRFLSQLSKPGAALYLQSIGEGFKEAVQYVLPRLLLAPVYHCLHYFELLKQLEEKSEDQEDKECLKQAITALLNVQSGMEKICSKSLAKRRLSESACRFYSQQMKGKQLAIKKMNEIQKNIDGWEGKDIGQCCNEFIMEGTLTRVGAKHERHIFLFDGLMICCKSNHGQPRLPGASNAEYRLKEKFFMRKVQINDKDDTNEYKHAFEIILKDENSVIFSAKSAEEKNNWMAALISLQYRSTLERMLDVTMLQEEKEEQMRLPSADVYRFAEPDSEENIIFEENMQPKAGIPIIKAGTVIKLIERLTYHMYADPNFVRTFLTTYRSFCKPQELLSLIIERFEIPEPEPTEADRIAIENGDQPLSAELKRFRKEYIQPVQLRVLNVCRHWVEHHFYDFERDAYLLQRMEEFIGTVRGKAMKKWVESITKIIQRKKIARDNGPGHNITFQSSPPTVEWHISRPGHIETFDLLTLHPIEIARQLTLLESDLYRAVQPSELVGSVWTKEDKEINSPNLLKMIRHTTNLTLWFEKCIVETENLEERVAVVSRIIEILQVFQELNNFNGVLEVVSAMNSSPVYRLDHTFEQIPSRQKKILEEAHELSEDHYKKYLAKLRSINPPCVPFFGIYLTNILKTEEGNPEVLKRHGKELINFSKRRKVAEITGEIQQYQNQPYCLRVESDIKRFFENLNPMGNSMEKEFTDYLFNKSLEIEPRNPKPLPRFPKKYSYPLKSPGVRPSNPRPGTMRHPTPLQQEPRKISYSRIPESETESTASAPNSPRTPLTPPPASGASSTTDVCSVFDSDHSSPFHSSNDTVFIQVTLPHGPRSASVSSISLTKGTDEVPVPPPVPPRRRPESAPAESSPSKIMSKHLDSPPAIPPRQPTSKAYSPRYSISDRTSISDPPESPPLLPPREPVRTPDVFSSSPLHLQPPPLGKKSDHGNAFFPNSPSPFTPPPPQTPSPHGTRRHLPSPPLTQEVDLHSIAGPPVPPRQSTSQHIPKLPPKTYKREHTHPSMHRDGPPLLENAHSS

Turning to `Cc1nc(N[C@H](C)c2cccc(C(F)F)c2F)c2cc3c(cc2n1)OC[C@H]1CN(C(=O)[C@@H]2C[C@H]2F)CCN31`, the AUC in [1] amounted to 4010 ng·h/mL. In [2], this compound had a k el of 2.78e-05 s⁻¹. The Activity result in data set [3] is on record as “Non-Toxic”; in [6], “Non-Toxic”; in [7], 49%. The compound also registered a Cmax in data set [4] of 651 ng/mL. In addition, the half-inhibitory concentration (IC50) in [5] worked out at 6 nM. In addition, in data set [8], the half-life was 6.67 h. Also, in data set [9], the mean residence time (MRT) worked out at 4.08 h. Moreover, the time to peak (Tmax) in [10] is 5.67 h.

In [11], `CC(=O)N1CCN2c3cc4c(N[C@H](C)c5cccc(C(F)(F)C(C)(C)O)c5F)nc(C)nc4cc3OC[C@H]2C1` gave a k el of 3.89e-05 s⁻¹. Moreover, the Tmax in data set [12] is 0.625 h. For the same compound, in [13], the MRT is 1 h. The IC50 in data set [14] is 12.7 nM; in [5] it was 10 nM. Further, in [15], the half-life was 3.24 h. In data set [16], the Cmax worked out at 5.03 ng/mL. Besides, the AUC in [17] is 7.7 ng·h/mL.

In the case of `Cc1nc(N[C@H](C)c2cccc(C(F)F)c2F)c2cc3c(cc2n1)OC[C@H]1CN(C(=O)[C@H]2CCOC2)CCN31`, the IC50 was found to be 178 nM in [18] and 5 nM in data set [5]. The same compound registered an AUC in data set [1] of 9900 ng·h/mL. This compound gave a Kel in data set [2] of 0.25 h⁻¹. Besides, the Activity entry in data set [3] is listed as “Non-Toxic”; in [20], 71%; in [6], “Non-Toxic”; in data set [7], 49%. In data set [4], this compound yielded a peak concentration (Cmax) of 1550 ng/mL. The CLint scaled in data set [19] worked out at 209 mL/min/kg; in [21], 37.2 mL/min/kg. The half-life in data set [22] was found to be 1.12 h; in data set [23], 0.437 h. The compound further registered a t1/2 in data set [8] of 11.4 h. The compound also registered an MRT in data set [9] of 4.19 h. For the same compound, the time to peak (Tmax) in data set [10] stood at 3.67 h.

`CC(=O)N1CCN2c3cc4c(N[C@H](C)c5cccc(C(F)F)c5F)nc(C)nc4cc3OC[C@H]2C1`: the k el in [11] is 0.000103 s⁻¹; in [2], 0.000119 s⁻¹. The exposure (AUC) was found to be 601 ng·h/mL in data set [1] and 148 ng·h/mL in [17]. In addition, the Cmax worked out at 270 ng/mL in data set [4] and 63.4 ng/mL in data set [16]. The Tmax in data set [12] worked out at 0.33 h; in [10], 0.25 h. In addition, the outcome in data set [24] was Active. Further, the results for the mean residence time MRT in data set [13] and in [9] were 1.9 h and 1.93 h, respectively. The inhibition in vivo at 50 mg/kg in data set [25] worked out at 42%. In addition, the IC50 in data set [14] is 6.3 nM; in data set [5], 2.4 nM. In addition, the Activity result in data set [6] is “Non-Toxic”. For the same compound, the half-life in [15] is 1.87 h; in data set [8], 2.14 h.

`COc1cc2nc(C)nc(N[C@H](C)c3cc(N)cc(C(F)(F)F)c3)c2cc1O[C@H]1CCOC1`: the k el in data set [11] is 0.000147 s⁻¹; in [2], 5.83e-05 s⁻¹. Further, the area under the curve (AUC) in data set [1] is 4680 ng·h/mL; in [17] it was 550 ng·h/mL. For the same compound, the Activity result in [3] is “Non-Toxic”; in data set [6] it was “Non-Toxic”; in data set [7], 42%. In addition, the Cmax in [4] was 1050 ng/mL; in data set [16], 241 ng/mL. For the same compound, the time to peak (Tmax) in data set [12] came to 0.5 h; in data set [10], 0.9 h. Further, the results for the CLint scaled in data set [19] and in data set [21] were 504 mL/min/kg and 69.5 mL/min/kg, respectively. The mean residence time (MRT) in data set [13] worked out at 1.7 h; in data set [9], 2.98 h. Further, in [5], the 50% inhibitory concentration (IC50) is 30.7 nM. For the same compound, the half-life in data set [15] is 1.3 h; in data set [22], 0.602 h; in data set [23] it was 0.18 h; in [8] it was 4.48 h.

`Cc1nc(N[C@H](C)c2cccc(C(F)F)c2F)c2cc3c(cc2n1)OC[C@H]1CN(C(=O)NC2CC2)CCN31` came in with an AUC in data set [1] of 3490 ng·h/mL. Besides, the Kel in data set [2] was 0.14 h⁻¹. Besides, the Activity entry in [3] was “Non-Toxic”; in [6], “Non-Toxic”; in [7], 47%. In [4], this compound yielded a Cmax of 557 ng/mL. Further, the IC50 in data set [5] was found to be 8 nM. Besides, the t1/2 in [8] was 12.6 h. In addition, the MRT in data set [9] is 4.36 h. In addition, the Tmax in [10] amounted to 6 h.

With `CC(=O)N1CCN2c3cc4c(N[C@H](C)c5cc(N)cc(C(F)(F)F)c5)nc(C)nc4cc3OC[C@H]2C1`, the k el in data set [11] is 0.000142 s⁻¹. Further, the Tmax in [12] is 1 h. In addition, the result in [24] was Active. The mean residence time MRT in [13] stood at 10.1 h. The values for the IC50 in [14] and in data set [5] were 4.3 nM and 4.7 nM, respectively. Moreover, the half-life in data set [15] was 1.49 h. Besides, the peak level in data set [16] (Cmax) was 8.89 ng/mL. The same compound showed an exposure (AUC) in data set [17] of 53.5 ng·h/mL.

In the case of `CC(=O)N1CCN2c3cc4c(N[C@H](C)c5cccc(C(F)(F)CO)c5F)nc(C)nc4cc3OC[C@H]2C1`, in data set [24], the outcome was Active. The IC50 in data set [14] worked out at 2.7 nM; in data set [5], 1.4 nM.

The values are drawn from ChEMBL document CHEMBL5236589, “Design and Structural Optimization of Orally Bioavailable SOS1 Inhibitors for the Treatment of KRAS-Driven Carcinoma” (J Med Chem, 2022).
